Source: the METLIN SMRT retention time set (Domingo-Almenara et al. 2019)

Assay: gradient 5% acetonitrile 3 min, to 50% in 2 min, to 85% in 15 min, held 3 min, 100 µL/min
Details: column: Zorbax Extend-C18 2.1 x 50 mm; eluents: water / acetonitrile, 0.1% formic acid
Summary of the method: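 Data were gathered over 3 months by HPLC coupled to a quadrupole time-of-flight mass spectrometer, operated in positive and negative ionization mode. Mixtures of ~100 pure standards ran on a Zorbax Extend-C18 column (2.1 × 50 mm, 1.8 μm) at 100 μL/min, with water and acetonitrile each containing 0.1% formic acid and dead and dwell volumes of 40 μL and 900 μL. Retention time was read from adduct peaks picked by computer and checked manually.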

Row | SMILES | RP-LC retention time
1 | Cc1noc([C@@H]2CN(C(=O)Cc3ccsc3)C[C@H]2C(N)=O)n1 | 618 s
2 | CCc1noc(NC(C)=O)c1-c1ccc(C)c(S(=O)(=O)NCc2ccc3c(c2)OCO3)c1 | 814 s
3 | CC(C)N1CCn2cc(S(=O)(=O)Nc3ccc(C#N)cc3)cc2C1=O | 719 s
4 | CC(=O)N(C1CC1)C1CCOC2(CCN(C(=O)Cc3c(C)noc3C)CC2)C1 (stereo unspecified) | 659 s
5 | Cc1nn2c(CNC(=O)c3ccccc3)c(-c3ccccc3)nc2s1 | 810 s
6 | COc1ccc(CCNS(=O)(=O)c2cccc(-c3nc(-c4ccc(C)cc4)no3)c2)cc1OC | 1150 s
7 | Cc1nn(-c2ccccc2)c2nc(C3CC3)cc(C(=O)NCc3ccco3)c12 | 1100 s
8 | CC(C)(CO)NCc1ccc(-c2ccc(F)c(Cl)c2)o1 | 644 s
9 | CCOC(=O)c1cnc2nc(C)ccc2c1Nc1ccc(S(N)(=O)=O)cc1 | 589 s
10 | CCc1nnc(-c2cc(C)n(CC(=O)Nc3cccc(SC)c3)c2C)o1 | 846 s
11 | COCCNC(=O)N(C)CCc1noc(COc2ccc(Cl)cc2)n1 | 747 s
12 | CCCCn1cc(S(=O)(=O)N2CCN(c3cccc(Cl)c3)CC2)c2cccnc21 | 1250 s
13 | Cc1ccc(C2=NC3(CCN(C(=O)c4ccn[nH]4)CC3)ON2)cc1 | 680 s
14 | CN(c1ccccc1)c1nc(=O)n(CC(=O)Nc2ccc3c(c2)OCO3)c2ccccc12 | 800 s
15 | CCc1noc(NC(C)=O)c1-c1ccc(OC)c(S(=O)(=O)Nc2ccc3c(c2)OCCO3)c1 | 736 s
16 | COc1cccc(Cn2cccc(S(=O)(=O)N3CCCC3)c2=O)c1 | 807 s
17 | Cc1nnc([C@@H]2CC(F)(F)CN2C(=O)c2n[nH]c3ccccc23)o1 | 666 s
18 | COc1ccc(OC)c(S(=O)(=O)N2CCc3c(c(-c4nnc(-c5ccccc5)o4)nn3C)C2)c1 | 912 s
19 | O=C(NC1CCc2nnc(C3CC3)n2CC1)c1cnco1 (stereo unspecified) | 537 s

Row | SMILES | RP-LC retention time
20 | Cc1nnc(N2CCCC(C(=O)NCc3ccc(F)cc3)C2)c2nn(-c3ccc(Cl)cc3)c(C)c12 (stereo unspecified) | 771 s
21 | CCn1cc(-c2nc(C(=O)Nc3ccccc3C)cs2)c2cccnc21 | 1120 s
22 | O=C(C1CCN(c2nnc3ccc(Cl)cn23)CC1)N1CCOCC1 | 599 s
23 | Cc1cc(Cl)ccc1S(=O)(=O)N1CCC(OC2CCN(c3ccccc3)C2=O)CC1 (stereo unspecified) | 1080 s
24 | O=C(CN1CCN(Cc2ccc(F)cc2)C1=O)NCCCn1cccn1 | 672 s
25 | CC(NC(=O)C(=O)c1c[nH]c2ccccc12)c1ccccc1 (stereo unspecified) | 924 s
26 | Cc1ccc2c(C(=O)Nc3ccc(N4CCOCC4)cc3)cc(NC(=O)C(C)C)cc2n1 | 618 s
27 | O=C(Nc1cccc(F)c1)N1CCC(N2CCN(Cc3ccccc3)C(=O)C2=O)CC1 | 732 s
28 | Cc1ccc(NS(=O)(=O)c2cn(CC(C)C)c3ncccc23)c(C)c1 | 1050 s
29 | O=C(c1ccc(-c2noc(C3CC3)n2)cc1)N1CCN(c2nc3cccnc3o2)CC1 | 793 s
30 | Cc1cc(C)n(CCC(=O)N2C[C@H]3C[C@H](C2)[C@H]2CCCC(=O)N2C3)n1 | 600 s
31 | CCc1nc2cc(N3CCC(C(=O)NCc4ccc(F)cc4F)CC3)cnc2nc1CC | 852 s
32 | Cc1ccc(CNC(=O)N2CC=C(c3cn(C(C)C)c4ncccc34)CC2)cc1 | 958 s
33 | Cn1c(N2CCCN(C(=O)c3ccc(Br)cc3)CC2)cc(=O)n(C)c1=O | 664 s
34 | CCOc1ccccc1CN1CCc2nc(N3CCN(c4ccccn4)CC3)ncc2C1 | 583 s
35 | COc1ccccc1-c1csc(-c2nnn(-c3ccccc3)c2N)n1 | 1070 s
36 | C=CCn1c(SCCC(=O)O)nnc1-c1cccs1 | 616 s
37 | CSc1cccc(NC(=O)Cn2cnc3c(-c4ccncc4)nsc3c2=O)c1 | 668 s
38 | CCOc1ccc(NC(=O)N2CCC3(CC2)NC(=O)c2cc(Cl)ccc2N3C)cc1 | 858 s

Second part, the compound after the results:

Row | RP-LC retention time | SMILES
39 | 715 s | O=C(CN1CCC(c2nc(-c3ccc(F)cc3)no2)CC1)NC1CCCCC1
40 | 666 s | Cc1ccc(C(=O)NCCc2nc3cccnc3n2C(C)C)cc1
41 | 633 s | O=C(NCCC1=CCCCC1)C(=O)NCCN1CCN(c2ccc(F)cc2)CC1
42 | 733 s | O=C(Cn1nc(C(=O)N2CCOCC2)c2ccccc21)Nc1ccc(F)cc1
43 | 695 s | O=C(Cn1cnc(-c2noc(-c3ccncc3)n2)c1)NCc1ccc(Cl)cc1
44 | 1170 s | COc1ccc(-c2csc(C)n2)cc1S(=O)(=O)N1CCN(c2cccc(Cl)c2)CC1
45 | 730 s | CCCC(NC(=O)Cc1ccc(OC)cc1Cl)C(=O)Nc1nc2ccccc2[nH]1 (stereo unspecified)
46 | 988 s | CCCCN1C(=O)C(NC(=O)c2cccc(OC)c2)(C(F)(F)F)C(C(=O)OC)=C1C (stereo unspecified)
47 | 758 s | O=S(=O)(Cc1ccccc1)N1CCCCC1c1nc(C2CC2)n[nH]1 (stereo unspecified)
48 | 798 s | Cc1ccc(NC(=O)CN2C(=O)NC3(CCCCC3)C2=O)cc1F
49 | 966 s | O=C(CN1C(=O)C2CCCCN2c2ccc(S(=O)(=O)N3CCCC3)cc21)NCCc1ccccc1 (stereo unspecified)
50 | 1080 s | CCN(CC)S(=O)(=O)c1cc(-c2nnc(-c3ccccc3)o2)ccc1C
51 | 677 s | O=C(Nc1ccc2c(c1)OCO2)C(=O)NC1CC1
52 | 961 s | CCn1ccc(C(=O)Nc2cccc(OCc3nnc(-c4ccc(Cl)cc4)o3)c2)n1
53 | 681 s | CC(C)(C)NC(=O)CCc1c(-c2ccc(Br)cc2)nc2ccccn12
54 | 818 s | Cc1ccccc1S(=O)(=O)N1CCC(c2nc(C(=O)N(C)C)c(C)o2)CC1
55 | 1230 s | CC(C)Oc1ccc(-c2noc(Cn3c(=O)n(CCc4ccccc4)c(=O)c4sccc43)n2)cc1
56 | 683 s | COc1ccc(CNc2c(-c3nc(C4CC4)no3)cnc3nc(C)ccc23)cc1OC
57 | 632 s | CCC1CN(C(=O)N2CCC(C(=O)NCCN3CCOCC3)CC2)c2cc(C)ccc2O1 (stereo unspecified)
58 | 930 s | CCC(C)NC(=O)C1CCCN(c2ncccc2-c2noc(C3CCC3)n2)C1 (stereo unspecified)
59 | 1130 s | Cc1ccccc1Cn1nc(-c2nc(-c3ccc(F)cc3)no2)ccc1=O
60 | 774 s | CC(=O)N1CCCSc2ccc(S(=O)(=O)N3CCCC3)cc21
61 | 904 s | Cc1ccc(F)c(NC(=O)c2cnc3c(c2)c(=O)n(C)c(=O)n3-c2ccccc2)c1
62 | 667 s | CCOCCOC1CCN(C(=O)c2ccco2)CC1
63 | 956 s | CCS(=O)(=O)N1CCCc2cc(C(=O)NC3CCCCCC3)ccc21
64 | 1220 s | COC(=O)c1sccc1NC(=O)N1CCCC1c1nc(-c2cccc(Cl)c2)no1 (stereo unspecified)
65 | 595 s | CCOC(=O)c1noc2nc(C)nc(NCC3CCN(Cc4ccccc4F)CC3)c12
66 | 660 s | CS(=O)(=O)N(C1CCOCC1)C1CN(C(=O)NCc2ccccc2)C1
